Key:
[1] = test system: A53T α-syn Tg mice; assay: α-Synucleinopathy in A53T α-syn Tg mice; format: in vivo, mouse; details: 0.1 mg/kg body wt/d intranasal, 30 d
Protocol: FIG. 28 (A-B). Intranasal wtTIDM peptide attenuates microglial inflammation in the nigra of A53T α-syn Tg mice. A53T mice (male; 9-month old; n=6 per group) were treated with TIDM peptides via intranasal route at a dose of 0.1 mg/kg body wt/d for 30 d followed by double-label immunofluorescence analysis of nigral sections for Iba-1 and inducible nitric oxide synthase (iNOS) (A). Magnified images of selected area are shown at the bottom row. The iNOS (+ve) cells were counted in two sections of each of six mice per group and presented as cells/mm2.
FIG. 29 (A-B). Intranasal wtTIDM peptide stimulates microglial expression of arginase-1 in the nigra of A53T α-syn Tg mice. A53T mice (male; 9-month old; n=6 per group) were treated with TIDM peptides via intranasal route at a dose of 0.1 mg/kg body wt/d for 30 d followed by double-label immunofluorescence analysis of nigral sections for Iba-1 and arginase-1 (ARG1) (A). Magnified images of selected area are shown at the bottom row. The ARG-1 (+ve) cells were counted in two sections of each of six mice per group and presented as cells/mm2.
FIG. 30 (A-C). Intranasal wtTIDM peptide reduces α-synucleinopathy in the nigra of A53T α-syn Tg mice. A53T mice (male; 9-month old; n=6 per group) were treated with TIDM peptides via intranasal route at a dose of 0.1 mg/kg body wt/d for 30 d followed by Western blot analysis of nigral extracts for α-syn (A). Bands were scanned and presented as relative to A53T control (B, monomeric α-syn; C, oligomeric α-syn). Results are mean+SEM of six mice per group.
(§1) FIG. 31 (A-D). Intranasal wtTIDM peptide reduces α-synucleinopathy in the nigra of A53T α-syn Tg mice. A53T mice (male; 9-month old; n=6 per group) were treated with TIDM peptides via intranasal route at a dose of 0.1 mg/kg body wt/d for 30 d followed by double-label immunofluorescence analysis of nigral sections for TH and α-syn (mjfr1 Ab) (A). Magnified images of selected area are shown at the leftmost column. Total area (B), average size (C) and integrated density (D) of α-syn-positive cell bodies were calculated. Five cells from each of two nigral sections of six mice per group were analyzed.
as §1, with “FIG. 32 (A-B).” for “FIG. 31 (A-D).”, “for microglial marker Iba-1” for “for TH”, “column. Mean fluorescence intensity (MFI)” for “column. Total area (B), average size (C) and integrated density (D)”, “of (α-syn+Iba-1)-positive” for “of α-syn-positive”, “bodies was” for “bodies were”
FIG. 33 (A-E). Intranasal wtTIDM peptide improve locomotor activities of A53T α-syn Tg mice. A53T mice (male; 9-month old; n=6 per group) were treated with TIDM peptides via intranasal route at a dose of 0.1 mg/kg body wt/d for 30 d followed by monitoring locomotor activities by the Ethovision XT 13.0 Open Field Activity System (Noldus) (A, track plot; B, moving cumulative duration; C, distance; D, velocity; E, rotorod). Results are mean+SEM of six mice per group.

[2] = test system: NF-κB; assay: NF-κB activation by EMSA in BV-2 microglial cells; format: cell-based
Protocol: FIG. 4(A-S). Effect of wtTIDM and mTIDM peptides on the induction of NF-κB activation and the expression of proinflammatory molecules in microglial cells. BV-2 microglial cells preincubated with 10 μM wtTIDM/mTIDM peptides for 1 h were stimulated with 1 μM fibrillar Aβ1-42 (A-C), 1 μM MPP+ (D-F), 250 ng/ml LTA (G-I), […] LPS (J-L), 1 μM flagellin (M-O), and 1 μM CpG DNA (P-R) under serum-free condition. After 1 h of stimulation, the activation of NF-κB was monitored in nuclear extracts by EMSA (A, fibrillar Aβ; D, MPP+; G, LTA; J, LPS; M, flagellin, P; CpG DNA). After 4 h of stimulation, the mRNA expression of IL-1β (B, E, H, K, N, & Q) and iNOS (C, F, I, L, O, & R) was monitored by real-time PCR (B-C, fibrillar Aβ; E-F, MPP+; H-I, LTA; K-L, LPS; N-O, flagellin; Q-R, CpG DNA) (n=2 replicates/dose in 3 independent experiments). ap<0.001 vs control; bp<0.001 vs stimuli by two-sample t-tests. FIG. 4S is a schematic representation of the relationships in microglia of Toll-Like Receptors, the stimulators tested, wTIDM, MyD88 and NF-κB.
FIG. 14 (A-D). Effect of wtTIDM and mTIDM peptides on polyIC-mediated activation of NF-κB activation and the expression of proinflammatory molecules in microglial cells. BV-2 microglial cells preincubated with 10 μM wtTIDM/mTIDM peptides for 1 h were stimulated with 50 μM polyIC. A) After 1 h of stimulation, the activation of NF-κB was monitored in nuclear extracts by EMSA. After 4 h of stimulation, the mRNA expression of IL-1β and iNOS was monitored by semi-quantitative RT-PCR (B) and real-time PCR (C, IL-1β; D, iNOS) (n=2 replicates/condition in 3 independent experiments). ap<0.001 vs control; bp<0.001 vs stimuli by two-sample t-tests.
(§2) Nuclear extracts were isolated and EMSA was carried out as described before (22, 23).

[3] = test system: NF-κB; assay: NF-κB activation by EMSA in primary microglia from WT mice; format: cell-based, mouse; details: peptide 1 h, 1 μM fibrillar Aβ1-42 for 1 h
Protocol: FIG. 16 (A-F). […] Primary microglia isolated from WT (A) and TLR2 (−/−) (B) mice were treated with different concentrations of wtTIDM peptide for 1 h followed by stimulation with 1 μM fibrillar Aβ1-42 under serum-free condition. After 1 h of stimulation, the activation of NF-κB was monitored by EMSA. WT (C & D) and TLR2 (−/−) (E & F) microglia were treated with different concentrations of wtTIDM and mTIDM peptides for 1 h followed by stimulation with 1 μM fibrillar Aβ1-42 under serum-free condition. After 18 h of stimulation, levels of TNFα (C & E) and IL-1β (D & F) were monitored in supernatants by ELISA (n=2 replicates/condition in 3 independent experiments). ap<0.001 vs control; bp<0.001 vs stimuli by two-sample t-tests.
as §2

Compound	arginase-1 in the nigra [1]	locomotor activities of A53T mice [1]	microglial expression of iNOS in the nigra [1]	microglial α-syn in the nigra [1]	oligomeric and monomeric α-syn [1]	α-syn inclusion bodies within tyrosine hydroxylase-positive dopaminergic neurons [1]	inhibition of LTA-mediated activation of NF-κB ([2]; 10 μM peptide 1 h, then 250 ng/ml LTA for 1 h)	suppression of NF-κB activation induced by CpG DNA ([2]; 10 μM peptide 1 h, then 1 μM CpG DNA for 1 h)	suppression of NF-κB activation induced by MPP+ ([2]; 10 μM peptide 1 h, then 1 μM MPP+ for 1 h)	inhibition of fibrillar Aβ-mediated activation of NF-κB ([2]; 10 μM peptide 1 h, then 1 μM fibrillar Aβ1-42 for 1 h)	suppression of NF-κB activation induced by flagellin ([2]; 10 μM peptide 1 h, then 1 μM flagellin for 1 h)	suppression of NF-κB activation induced by poly IC ([2]; 10 μM peptide 1 h, then 50 μM polyIC for 1 h)	suppression of NF-κB activation induced by LPS ([2]; 10 μM peptide 1 h, then 1 mg/ml LPS for 1 h)	inhibition of fibrillar Aβ1-42-induced activation of NF-κB in WT primary microglia [3]	protective effect in A53T mice (all readouts) [1]	effect on activation of NF-κB induced by any of the stimuli ([2]; fibrillar Aβ, MPP+, LTA, poly IC, LPS, flagellin, CpG DNA)
CC[C@H](C)[C@H](NC(=O)[C@H](CCCCN)NC(=O)[C@@H](NC(=O)[C@H](CCC(N)=O)NC(=O)[C@H](CCCNC(=N)N)NC(=O)[C@@H](N)CC(=O)O)[C@@H](C)CC)C(=O)N[C@@H](Cc1c[nH]c2ccccc12)C(=O)N[C@@H](Cc1ccccc1)C(=O)N[C@@H](CCC(N)=O)C(=O)N[C@@H](CC(N)=O)C(=O)N[C@@H](CCCNC(=N)N)C(=O)N[C@@H](CCCNC(=N)N)C(=O)N[C@@H](CCSC)C(=O)N[C@@H](CCCCN)C(=O)N[C@@H](Cc1c[nH]c2ccccc12)C(=O)N[C@@H](CCCCN)C(=O)N[C@@H](CCCCN)C(=O)N1CCC[C@H]1C(=O)NCC(=O)N[C@@H](C)C(=O)N[C@@H](Cc1c[nH]cn1)C(=O)N[C@@H](CCC(N)=O)C(=O)N[C@@H](CCCCN)C(=O)O [wtTIDM, drqikiwfqnrrmkwkkPGAHQK]	increase	improved	reduced	decrease	reduction	suppression	inhibited	remained unable to suppress	remained unable to suppress	inhibited	remained unable to suppress	remained unable to suppress	remained unable to suppress	inhibited	–	–
CC[C@H](C)[C@H](NC(=O)[C@H](CCCCN)NC(=O)[C@@H](NC(=O)[C@H](CCC(N)=O)NC(=O)[C@H](CCCNC(=N)N)NC(=O)[C@@H](N)CC(=O)O)[C@@H](C)CC)C(=O)N[C@@H](Cc1c[nH]c2ccccc12)C(=O)N[C@@H](Cc1ccccc1)C(=O)N[C@@H](CCC(N)=O)C(=O)N[C@@H](CC(N)=O)C(=O)N[C@@H](CCCNC(=N)N)C(=O)N[C@@H](CCCNC(=N)N)C(=O)N[C@@H](CCSC)C(=O)N[C@@H](CCCCN)C(=O)N[C@@H](Cc1c[nH]c2ccccc12)C(=O)N[C@@H](CCCCN)C(=O)N[C@@H](CCCCN)C(=O)N1CCC[C@H]1C(=O)NCC(=O)N[C@@H](Cc1c[nH]c2ccccc12)C(=O)N[C@@H](Cc1c[nH]cn1)C(=O)N[C@@H](CCC(N)=O)C(=O)N[C@@H](CC(=O)O)C(=O)O [mTIDM, drqikiwfqnrrmkwkkPGWHQD]	–	–	–	–	–	–	–	–	–	–	–	–	–	–	did not exhibit any such protective effect	had no effect
